Reference: patent publication US12581252B2, “Substituted pyrrolo[3,4-b]pyridines as PI3K-α inhibitors” (Relay Therapeutics, Inc., priority 2020, dated 2026)

Tests used:
H1047R PIK3CA enzyme = H1047R PIK3CA enzyme (Homo sapiens, UniProt P42336, H1047R); experiment: ADP-Glo Biochemical PIK3CA Kinase Assay
cells = conditions: Homo sapiens, MCF-10A, read-out: MCF10A IC50

Sequence of H1047R PIK3CA enzyme (P42336 whole entry H1047R): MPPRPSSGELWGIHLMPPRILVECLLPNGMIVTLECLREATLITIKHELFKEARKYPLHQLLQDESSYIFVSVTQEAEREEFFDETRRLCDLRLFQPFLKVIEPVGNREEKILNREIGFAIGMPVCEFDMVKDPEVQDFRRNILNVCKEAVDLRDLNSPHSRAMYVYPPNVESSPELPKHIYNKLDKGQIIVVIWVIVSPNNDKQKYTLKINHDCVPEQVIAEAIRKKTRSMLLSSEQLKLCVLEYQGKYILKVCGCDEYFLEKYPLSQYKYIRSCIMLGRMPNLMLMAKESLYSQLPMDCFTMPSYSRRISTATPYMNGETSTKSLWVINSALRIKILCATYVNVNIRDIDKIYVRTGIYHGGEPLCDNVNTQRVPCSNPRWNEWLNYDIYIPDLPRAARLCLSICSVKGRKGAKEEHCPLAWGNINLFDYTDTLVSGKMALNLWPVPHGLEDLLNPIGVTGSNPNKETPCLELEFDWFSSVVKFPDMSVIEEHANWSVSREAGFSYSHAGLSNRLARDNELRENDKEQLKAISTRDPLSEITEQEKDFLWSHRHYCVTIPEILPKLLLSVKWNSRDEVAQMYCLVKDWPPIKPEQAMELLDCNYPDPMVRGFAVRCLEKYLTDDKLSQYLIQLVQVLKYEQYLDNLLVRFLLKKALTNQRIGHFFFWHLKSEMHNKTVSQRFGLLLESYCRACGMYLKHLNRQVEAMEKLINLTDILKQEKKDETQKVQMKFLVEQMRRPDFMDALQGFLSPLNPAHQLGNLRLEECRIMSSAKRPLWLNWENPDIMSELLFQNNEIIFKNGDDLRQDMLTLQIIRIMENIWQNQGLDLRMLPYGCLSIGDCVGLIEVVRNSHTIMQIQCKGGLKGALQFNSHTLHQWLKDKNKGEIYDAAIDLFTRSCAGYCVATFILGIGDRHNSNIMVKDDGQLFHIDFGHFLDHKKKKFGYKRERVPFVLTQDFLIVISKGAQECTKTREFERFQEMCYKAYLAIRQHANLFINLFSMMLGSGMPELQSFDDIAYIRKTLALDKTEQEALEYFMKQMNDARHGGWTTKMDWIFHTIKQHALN
Sequence of H1047R PIK3CA enzyme (P27986 whole entry partner): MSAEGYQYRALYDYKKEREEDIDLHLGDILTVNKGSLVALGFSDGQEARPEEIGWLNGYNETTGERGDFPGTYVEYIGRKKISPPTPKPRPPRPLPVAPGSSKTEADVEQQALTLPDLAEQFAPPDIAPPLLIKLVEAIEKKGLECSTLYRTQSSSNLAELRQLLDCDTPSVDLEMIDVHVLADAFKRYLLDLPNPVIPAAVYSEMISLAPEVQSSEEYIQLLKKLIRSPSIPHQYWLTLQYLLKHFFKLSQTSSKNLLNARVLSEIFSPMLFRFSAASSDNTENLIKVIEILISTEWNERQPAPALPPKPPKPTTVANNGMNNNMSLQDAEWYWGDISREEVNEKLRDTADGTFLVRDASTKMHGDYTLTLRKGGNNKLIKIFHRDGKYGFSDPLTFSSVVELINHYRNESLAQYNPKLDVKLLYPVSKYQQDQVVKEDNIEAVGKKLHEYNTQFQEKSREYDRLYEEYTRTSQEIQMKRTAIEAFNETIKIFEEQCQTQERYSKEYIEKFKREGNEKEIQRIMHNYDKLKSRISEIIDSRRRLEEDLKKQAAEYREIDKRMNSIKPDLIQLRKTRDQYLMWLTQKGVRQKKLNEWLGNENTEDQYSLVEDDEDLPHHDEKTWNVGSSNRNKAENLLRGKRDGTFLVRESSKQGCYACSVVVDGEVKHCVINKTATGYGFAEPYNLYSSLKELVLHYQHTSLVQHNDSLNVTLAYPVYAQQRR

SMILES	IC50 (H1047R PIK3CA enzyme)	IC50 (cells)
Cc1ccccc1C1NC(=O)c2cccc(NC(=O)c3nsc4ccccc34)c21 (stereo not shown) [Compound I-13, N-(1-Oxo-3-(o-tolyl)isoindolin-4-yl)benzo[d]isothiazole-3-carboxamide]	0.1 to 0.5 µM	1 to 5 µM
CC(C)(O)c1cc(NC(=O)c2cc(F)cc(Cl)c2)c2c(c1)C(=O)N[C@H]2c1cc(F)ccc1Cl [Compound I-298]	≤ 0.1 µM	< 1 µM
N#Cc1c(N)cc(NC(=O)c2cc(F)cc(C(F)(F)F)c2)c2c1C(=O)NC2c1cc(F)ccc1Cl (stereo not shown) [Compound I-2223]	≤ 0.1 µM	< 1 µM
O=C(Nc1cc(Nc2ncc[nH]2)cc2c1C(c1cc(F)ccc1Cl)NC2=O)c1cc(F)cc(C(F)(F)F)c1 (stereo not shown) [Compound I-999]	≤ 0.1 µM	1 to 5 µM
O=C(Nc1cc(NC2=N[C@@H](C(F)(F)F)CO2)cc2c1[C@H](c1cc(F)ccc1Cl)NC2=O)c1cc(F)cc(C(F)(F)F)c1 (single isomer, unassigned) [Compound I-2388]	≤ 0.1 µM	1 to 5 µM
CC(C)(O)Cc1cc(NC(=O)c2cc(F)cc(Cl)c2)c2c(c1)C(=O)N[C@H]2c1cc(F)ccc1Cl [Compound I-1080]	≤ 0.1 µM	< 1 µM
CNc1cc(NC(=O)c2csc3ccccc23)c2c(c1)C(=O)NC2c1ccccc1C (stereo not shown) [Compound I-39]	≤ 0.1 µM	1 to 5 µM
O=C(Nc1cc(-c2cnn(C3COC3)c2)cc2c1C(c1cc(F)ccc1Cl)NC2=O)c1cc(F)cc(C(F)(F)F)c1 (stereo not shown) [Compound I-904]	≤ 0.1 µM	< 1 µM
Cc1ccccc1C1NC(=O)c2cc(N)cc(NC(=O)c3csc4ccccc34)c21 (stereo not shown) [Compound I-34]	≤ 0.1 µM	1 to 5 µM
CNc1nc2ccc(-c3cc(NC(=O)c4cc(F)cc(C(F)(F)F)c4)c4c(c3)C(=O)NC4c3cc(F)ccc3Cl)cn2n1 (stereo not shown) [Compound I-2125]	≤ 0.1 µM	< 1 µM
O=C1N[C@H](c2cc(F)ccc2Cl)c2c(NC(=O)N3C[C@@](O)(C(F)(F)F)c4cc(F)ccc43)cc(N3CCOC3=O)cc21 (single isomer, unassigned) [Compound I-2673]	≤ 0.1 µM	< 1 µM
CC(C)(O)c1cc(NC(=O)c2cc(F)cc(C(F)(F)F)c2)c2c(c1)C(=O)N[C@H]2c1cc(F)ccc1Cl [Compound I-189]	≤ 0.1 µM	< 1 µM
Cc1cc2cnn(C)c2cc1-c1cc(NC(=O)c2cc(F)cc(C(F)(F)F)c2)c2c(c1)C(=O)NC2c1cc(F)ccc1Cl (stereo not shown) [Compound I-933]	0.1 to 0.5 µM	5 to 10 µM
CN(C)c1nc2cc(-c3cc(NC(=O)c4cc(F)cc(C(F)(F)F)c4)c4c(c3)C(=O)NC4c3cc(F)ccc3Cl)ccn2n1 (stereo not shown) [Compound I-2200]	≤ 0.1 µM	< 1 µM
O=C1NC(c2cc(F)ccc2Cl)c2c(NC(=O)C34CC5CC(C3)CC(C(F)(F)F)(C5)C4)cccc21 (stereo not shown) [Compound I-1073]	≤ 0.1 µM	< 1 µM
Cn1nccc1CNc1cc(NC(=O)c2cc(F)cc(C(F)(F)F)c2)c2c(c1)C(=O)NC2c1cc(F)ccc1Cl (stereo not shown) [Compound I-1082]	≤ 0.1 µM	< 1 µM
C[C@]1(C(=O)Nc2cc(Br)cc3c2[C@@H](c2cc(F)ccc2Cl)NC3=O)CCC[C@@H](C(F)(F)F)C1 (single isomer, unassigned) [Compound I-2261]	≤ 0.1 µM	< 1 µM
O=C(Nc1cc(-c2ccc3[nH]ncc3c2)cc2c1C(c1cc(F)ccc1Cl)NC2=O)c1cc(F)cc(C(F)(F)F)c1 (stereo not shown) [Compound I-1033]	≤ 0.1 µM	< 1 µM
COc1ccc(NC(=O)c2csc3ccccc23)c2c1C(=O)NC2c1ccccc1C (stereo not shown) [Compound I-35]	≤ 0.1 µM	1 to 5 µM

SMILES	IC50 (H1047R PIK3CA enzyme)	IC50 (cells)
Cc1nc2ncc(-c3cc(NC(=O)c4cc(F)cc(C(F)(F)F)c4)c4c(c3)C(=O)NC4c3cc(F)ccc3Cl)cn2n1 (stereo not shown) [Compound I-1124]	≤ 0.1 µM	< 1 µM
[2H]C1(c2cc(F)ccc2Cl)NC(=O)c2cccc(NC(=O)N3CC(O)(C(F)(F)F)c4cc(F)ccc43)c21 (stereo not shown) [Compound I-2648]	≤ 0.1 µM	< 1 µM
N#CCc1cc(NC(=O)N2C[C@](O)(C(F)(F)F)c3cc(F)ccc32)c2c(c1)C(=O)N[C@@H]2c1cc(F)ccc1Cl (single isomer, unassigned) [Compound I-2627]	≤ 0.1 µM	< 1 µM
O=C(Nc1cc(-c2c[nH]nn2)cc2c1C(c1cc(F)ccc1Cl)NC2=O)c1cc(F)cc(C(F)(F)F)c1 (stereo not shown) [Compound I-840]	≤ 0.1 µM	< 1 µM
O=C(Nc1cc(-c2cnn(C3CC3)c2)cc2c1[C@H](c1cc(F)ccc1Cl)NC2=O)c1cc(F)cc(C(F)(F)F)c1 (single isomer, unassigned) [Compound I-1022]	≤ 0.1 µM	< 1 µM
O=C(Nc1cc(-c2ccc[nH]c2=O)cc2c1C(c1cc(F)ccc1Cl)NC2=O)c1cc(F)cc(C(F)(F)F)c1 (stereo not shown) [Compound I-916]	≤ 0.1 µM	< 1 µM
Cn1cc2cc(-c3cc(NC(=O)c4cc(F)cc(C(F)(F)F)c4)c4c(c3)C(=O)NC4c3cc(F)ccc3Cl)ccc2n1 (stereo not shown) [Compound I-1029]	≤ 0.1 µM	< 1 µM
N#CCc1cc(NC(=O)c2cc(F)cc(C(F)(F)F)c2)c2c(c1)C(=O)N[C@H]2c1cc(F)ccc1Cl (racemic) [Compound I-1088]	≤ 0.1 µM	< 1 µM
O=C(Nc1cc(CS(=O)(=O)C2CC2)cc2c1C(c1cc(F)ccc1Cl)NC2=O)c1cc(F)cc(C(F)(F)F)c1 (stereo not shown) [Compound I-1081]	≤ 0.1 µM	< 1 µM
O=C1N[C@@H](c2cc(F)ccc2Cl)c2c(NC(=O)N3C[C@@H](O)c4ccc(F)cc43)cccc21 (stereo in doubt) [Compound I-2171]	≤ 0.1 µM	< 1 µM
O=C(Nc1cccc2c1[C@H](c1cc(F)ccc1Cl)NC2=O)c1cc(F)cc(C(F)(F)F)c1 [Compound I-500]	≤ 0.1 µM	< 1 µM
O=C(Nc1cc(-c2cccn3nccc23)cc2c1C(c1cc(F)ccc1Cl)NC2=O)c1cc(F)cc(C(F)(F)F)c1 (stereo not shown) [Compound I-983]	≤ 0.1 µM	< 1 µM
[2H]C1(c2ccccc2C)NC(=O)c2cccc(NC(=O)c3csc4ccccc34)c21 (stereo not shown) [Compound I-25]	≤ 0.1 µM	1 to 5 µM
Cc1nn(C)cc1Nc1cc(NC(=O)c2cc(F)cc(C(F)(F)F)c2)c2c(c1)C(=O)NC2c1cc(F)ccc1Cl (stereo not shown) [Compound I-924]	≤ 0.1 µM	< 1 µM
O=C1N[C@H](c2cc(F)ccc2Cl)c2c(NC(=O)N3C[C@](O)(C(F)(F)F)c4cc(F)ccc43)cc(C(F)F)cc21 (single isomer, unassigned) [Compound I-2579]	≤ 0.1 µM	< 1 µM
COc1nccc(-c2cc(NC(=O)c3cc(F)cc(C(F)(F)F)c3)c3c(c2)C(=O)NC3c2cc(F)ccc2Cl)n1 (stereo not shown) [Compound I-1105]	≤ 0.1 µM	< 1 µM
N#Cc1ccc(-c2cc(NC(=O)c3cc(F)cc(C(F)(F)F)c3)c3c(c2)C(=O)NC3c2cc(F)ccc2Cl)cn1 (stereo not shown) [Compound I-928]	≤ 0.1 µM	< 1 µM
Cc1ccccc1[C@H]1NC(=O)c2cccc(NC(=O)c3csc4c(F)cccc34)c21 [Compound I-38]	0.1 to 0.5 µM	1 to 5 µM
N#CCc1cc(NC(=O)N2CC(O)(C(F)(F)F)c3ccccc32)c2c(c1)C(=O)NC2c1cc(F)ccc1Cl (mixture of isomers) [Compound I-2585]	≤ 0.1 µM	< 1 µM
